Each block holds one molecule with its values, some of them ahead of it.
Tested on: Escherichia coli ATCC 25922
Assay: Minimum inhibitory concentration (MIC), CLSI broth micro-dilution, E. coli
Format: cell-based
Settings: Escherichia coli
How it was run: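 Antibacterial potency is measured as MIC by the CLSI broth dilution method. Bacteria at OD600 0.0005 in Tween-80-supplemented cation-adjusted Mueller Hinton broth face ten twofold compound dilutions for 22 h at 35° C.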

[1] = ATCC25922, Table 6, cation adjusted Mueller Hinton Broth + 0.002% Tween-80, 35° C., 22 hours
[2] = ATCC25922, 22 h, Table 7, cation adjusted Mueller Hinton Broth + 0.002% Tween-80, 35° C.
[3] = ATCC25922, 22 h, Table 6, cation adjusted Mueller Hinton Broth + 0.002% Tween-80, 35° C.

SMILES: Cc1nc(-c2ccc(OC3CCCCC3)cc2)nc(C)c1C(=O)N[C@@H](CCNC(=O)CO)C(=O)N(C)[C@@H]1C(=O)N[C@@H](C)C(=O)N[C@H](C(=O)NCC#N)Cc2ccc(OCCN)c(c2)-c2cc1ccc2OCCN [Compound 511, (8S,11S,14S)-3,18-bis(2-aminoethoxy)-N-(cyanomethyl)-14-[[(2S)-2-[[2-[4-(cyclohexoxy)phenyl]-4,6-dimethyl-pyrimidine-5-carbonyl]amino]-4-[(2-hydroxyacetyl)amino]butanoyl]-methyl-amino]-11-methyl-10,13-dioxo-9,12-diazatricyclo[13.3.1.12,6]icosa-1(18),2(20),3,5,15(19),16-hexaene-8-carboxamide]
MIC [1]: 2 µM

SMILES: CCCCCCCCc1ccc(C(=O)N[C@@H](CCNS(N)(=O)=O)C(=O)N(C)[C@@H]2C(=O)N[C@@H](C)C(=O)N[C@H](C(=O)NCC#N)Cc3ccc(OCCN)c(c3)-c3cc2ccc3OCCN)c(C)c1 (racemic) [Compound 449, rac-(8S,11S,14S)-3,18-bis(2-aminoethoxy)-N-(cyanomethyl)-11-methyl-14-[methyl-[rac-(2S)-2-[(2-methyl-4-octyl-benzoyl)amino]-4-(sulfamoylamino)butanoyl]amino]-10,13-dioxo-9,12-diazatricyclo[13.3.1.12,6]icosa-1(18),2(20),3,5,15(19),16-hexaene-8-carboxamide]
MIC [1]: 0.5 µM

SMILES: Cc1nc(-c2ccc(OCCC(C)(C)C)cc2)nc(N)c1C(=O)N[C@@H](CCN)C(=O)N(C)[C@@H]1C(=O)N[C@@H](C)C(=O)N[C@H](C(=O)NCC#N)Cc2ccc(OCCCN)c(c2)-c2cc1ccc2OCCCN (racemic) [Compound 436, rac-(8S,11S,14S)-3,18-bis(3-aminopropoxy)-N-(cyanomethyl)-11-methyl-14-[methyl-[rac-(2S)-4-amino-2-[[4-amino-2-[4-(3,3-dimethylbutoxy)phenyl]-6-methyl-pyrimidine-5-carbonyl]amino]butanoyl]amino]-10,13-dioxo-9,12-diazatricyclo[13.3.1.12,6]icosa-1(18),2(20),3,5,15(19),16-hexaene-8-carboxamide]
MIC [3]: 0.063 µM

SMILES: CCCCCOc1ccc(-c2ncc(C(=O)N[C@@H](CCN)C(=O)N(C)[C@@H]3C(=O)N[C@@H](C)C(=O)N[C@H](C(=O)NCC#N)Cc4ccc(OCCN)c(c4)-c4cc3ccc4OCCN)c(C)n2)cc1 (racemic) [Compound 241, rac-(8S,11S,14S)-3,18-bis(2-aminoethoxy)-N-(cyanomethyl)-11-methyl-14-[methyl-[rac-(2S)-4-amino-2-[[4-methyl-2-(4-pentoxyphenyl)pyrimidine-5-carbonyl]amino]butanoyl]amino]-10,13-dioxo-9,12-diazatricyclo[13.3.1.12,6]icosa-1(18),2(20),3,5,15(19),16-hexaene-8-carboxamide]
MIC [1]: 0.097 µM

SMILES: Cc1nc(-c2ccc(OC3CCCCC3)cc2)nc(C)c1C(=O)N[C@@H](CCN)C(=O)N[C@@H]1C(=O)N[C@@H](C)C(=O)N[C@H](C(=O)NCC#N)Cc2ccc(OCCN)c(c2)-c2cc1ccc2OCCN (racemic) [Compound 519, rac-(8S,11S,14S)-3,18-bis(2-aminoethoxy)-N-(cyanomethyl)-11-methyl-10,13-dioxo-14-[[rac-(2S)-4-amino-2-[[2-[4-(cyclohexoxy)phenyl]-4,6-dimethyl-pyrimidine-5-carbonyl]amino]butanoyl]amino]-9,12-diazatricyclo[13.3.1.12,6]icosa-1(18),2(20),3,5,15(19),16-hexaene-8-carboxamide]
MIC [3]: 0.13 µM

SMILES: C[C@@H]1NC(=O)[C@@H](N(C)C(=O)[C@H](CCN)NC(=O)c2cnc(-c3ccc(C(C)(C)C)cc3)nc2OCC(=O)O)c2ccc(OCCN)c(c2)-c2cc(ccc2OCCN)C[C@@H](C(=O)NCC#N)NC1=O (racemic) [Compound 420, 2-[2-(4-tert-butylphenyl)-5-[[rac-(1S)-3-amino-1-[methyl-[rac-(7S,10S,13S)-3,18-bis(2-aminoethoxy)-13-(cyanomethylcarbamoyl)-10-methyl-8,11-dioxo-9,12-diazatricyclo[13.3.1.12,6]icosa-1(19),2,4,6(20),15,17-hexaen-7-yl]carbamoyl]propyl]carbamoyl]pyrimidin-4-yl]oxyacetic acid]
MIC [1]: 3 µM

SMILES: Cc1nc(-c2ccc(C(C)(C)C)cc2)nc(C)c1C(=O)N[C@@H](CCN)C(=O)N(C)[C@@H]1C(=O)N[C@@H](C)C(=O)N[C@H](C(=O)O)Cc2cc(OCCN)c(O)c(c2)-c2cc1ccc2OCCN (racemic) [Compound 563, rac-(8S,11S,14S)-4,18-bis(2-aminoethoxy)-3-hydroxy-11-methyl-14-[methyl-[rac-(2S)-4-amino-2-[[2-(4-tert-butylphenyl)-4,6-dimethyl-pyrimidine-5-carbonyl]amino]butanoyl]amino]-10,13-dioxo-9,12-diazatricyclo [13.3.1.12,6]icosa-1(18),2,4,6(20),15(19), 16-hexaene-8-carboxylic acid]
MIC (ATCC25922, Table 7, cation adjusted Mueller Hinton Broth + 0.002% Tween-80, 35° C., 22 hours): 0.25 µM

SMILES: Cc1nc(-c2ccc(C(C)(C)C)cc2)nc(C)c1C(=O)N[C@@H](CCNS(N)(=O)=O)C(=O)N(C)[C@@H]1C(=O)N[C@@H](C)C(=O)N[C@H](C(=O)NCC#N)Cc2ccc(OCCN)c(c2)-c2cc1ccc2OCCN (racemic) [Compound 574, rac-(8S,11S,14S)-3,18-bis(2-aminoethoxy)-N-(cyanomethyl)-11-methyl-14-[methyl-[rac-(2S)-2-[[2-(4-tert-butylphenyl)-4,6-dimethyl-pyrimidine-5-carbonyl]amino]-4-(sulfamoylamino)butanoyl]amino]-10,13-dioxo-9,12-diazatricyclo[13.3.1.12,6]icosa-1(18),2(20),3,5,15(19),16-hexaene-8-carboxamide]
MIC [2]: 0.5 µM

Results, then the molecule that gave them:

MIC [2]: 0.25 µM
SMILES: Cc1nc(-c2ccc(C(C)(C)C)cc2)nc(C)c1C(=O)N[C@@H](CCN)C(=O)N(C)[C@@H]1C(=O)N[C@@H](C)C(=O)N[C@H](C(=O)NCC#N)Cc2cc(F)c(O)c(c2)-c2cc1ccc2OCCN [Compound 560, (4S,7S,10S)-10-((S)-4-amino-2-(2-(4-(tert-butyl)phenyl)-4,6-dimethylpyrimidine-5-carboxamido)-N-methylbutanamido)-1^6-(2-aminoethoxy)-N-(cyanomethyl)-2^5-fluoro-2^6-hydroxy-7-methyl-6,9-dioxo-5,8-diaza-1,2(1,3)-dibenzenacyclodecaphane-4-carboxamide]

MIC (ATCC25922, 22 h, Table 8, cation adjusted Mueller Hinton Broth + 0.002% Tween-80, 35° C.): 0.25 µM
SMILES: Cc1nc(-c2ccc(C(C)(C)C)cc2)ncc1C(=O)N[C@@H](CCN)C(=O)N(C)[C@@H]1C(=O)N[C@@H](C)C(=O)N[C@H](C(=O)O)Cc2ccc(OCCN)c(c2)-c2cc1ccc2OCCN (racemic) [Compound 640, rac-(8S,11S,14S)-3,18-bis(2-aminoethoxy)-11-methyl-14-[methyl-[rac-(2S)-4-amino-2-[[2-(4-tert-butylphenyl)-4-methyl-pyrimidine-5-carbonyl]amino]butanoyl]amino]-10,13-dioxo-9,12-diazatricyclo [13.3.1.12,6]icosa-1(18),2(20),3,5,15(19), 16-hexaene-8-carboxylic acid]

MIC [3]: 1 µM
SMILES: Cc1nc(-c2ccc(C(C)(C)C)cc2)cc(OCC(N)=O)c1C(=O)N[C@@H](CCN)C(=O)N(C)[C@@H]1C(=O)N[C@@H](C)C(=O)N[C@H](C(=O)NCC#N)Cc2ccc(OCCN)c(c2)-c2cc1ccc2OCCN (racemic) [Compound 551, rac-(8S,11S,14S)-3,18-bis(2-aminoethoxy)-N-(cyanomethyl)-11-methyl-14-[methyl-[rac-(2S)-4-amino-2-[[4-(2-amino-2-oxo-ethoxy)-6-(4-tert-butylphenyl)-2-methyl-pyridine-3-carbonyl]amino]butanoyl]amino]-10,13-dioxo-9,12-diazatricyclo[13.3.1.12,6]icosa-1(18),2(20),3,5,15(19),16-hexaene-8-carboxamide]

MIC [2]: 0.094 µM
SMILES: Cc1nc(-c2ccc(C(C)(C)C)cc2)nc(C)c1C(=O)N[C@@H](CCN)C(=O)N(C)[C@@H]1C(=O)N[C@@H](C)C(=O)N[C@H](C(=O)NCC#N)Cc2ccc(OC[C@H](O)CN)c(c2)-c2cc1cc(OCCN)c2O (racemic) [Compound 587, rac-(8S,11S,14S)-17-(2-aminoethoxy)-N-(cyanomethyl)-18-hydroxy-11-methyl-14-[methyl-[rac-(2S)-4-amino-2-[[2-(4-tert-butylphenyl)-4,6-dimethyl-pyrimidine-5-carbonyl]amino]butanoyl]amino]-10,13-dioxo-3-[rac-(2R)-3-amino-2-hydroxy-propoxy]-9,12-diazatricyclo[13.3.1.12,6]icosa-1(18),2(20),3,5,15(19),16-hexaene-8-carboxamide]

MIC [2]: 0.75 µM
SMILES: Cc1nc(-c2ccc(C(C)(C)C)cc2)nc(C)c1C(=O)N[C@@H](CCN)C(=O)N(C)[C@@H]1C(=O)N[C@@H](C)C(=O)N[C@H](C(=O)NCC#N)Cc2cc(OCCN)c(O)c(c2)-c2cc1ccc2O (racemic) [Compound 561, (4S,7S,10S)-10-((S)-4-amino-2-(2-(4-(tert-butyl)phenyl)-4,6-dimethylpyrimidine-5-carboxamido)-N-methylbutanamido)-25-(2-aminoethoxy)-N-(cyanomethyl)-16,26-dihydroxy-7-methyl-6,9-dioxo-5,8-diaza-1,2(1,3)-dibenzenacyclodecaphane-4-carboxamide]

MIC [2]: 0.5 µM
SMILES: Cc1nc(-c2ccc(C(C)(C)C)cc2)nc(C)c1C(=O)N[C@@H](CCN)C(=O)N(C)[C@@H]1C(=O)N[C@@H](C)C(=O)N[C@H](C(=O)NCC#N)Cc2ccc(OC(C)CN)c(c2)-c2cc1ccc2O (mixture of isomers) [Compound 606, rac-(8S,11S,14S)-3-(2-amino-1-methyl-ethoxy)-N-(cyanomethyl)-18-hydroxy-11-methyl-14-[methyl-[rac-(2S)-4-amino-2-[[2-(4-tert-butylphenyl)-4,6-dimethyl-pyrimidine-5-carbonyl]amino]butanoyl]amino]-10,13-dioxo-9,12-diazatricyclo[13.3.1.12,6]icosa-1(18),2(20),3,5,15(19),16-hexaene-8-carboxamide]

Source: patent publication US20260274892A1, “MACROCYCLIC BROAD SPECTRUM ANTIBIOTICS” (RQx Pharmaceuticals, Inc., priority 2017, published 2026)
